Results taken from patent US20260374756A1, “HETEROCYCLIC COMPOUNDS AS INHIBITORS OF MONOACYLGLYCEROL LIPASE (MAGL)” (Hoffmann-La Roche Inc., priority 2022, published 2026).

Biological target: T1, hMAGL (Homo sapiens, UniProt Q99685)
T1 sequence (Q99685 1-303): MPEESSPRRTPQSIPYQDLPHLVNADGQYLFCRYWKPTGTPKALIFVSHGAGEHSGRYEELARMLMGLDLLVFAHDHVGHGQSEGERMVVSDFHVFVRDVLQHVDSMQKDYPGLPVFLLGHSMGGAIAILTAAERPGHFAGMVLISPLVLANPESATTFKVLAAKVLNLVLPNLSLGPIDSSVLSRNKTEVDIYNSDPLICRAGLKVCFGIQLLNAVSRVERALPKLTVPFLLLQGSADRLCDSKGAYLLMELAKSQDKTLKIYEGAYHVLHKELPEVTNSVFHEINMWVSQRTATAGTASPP
Test: 2-AG assay: MAGL inhibition, hydrolysis of 2-arachidonoylglycerol to arachidonic acid followed by mass spectrometry
Format: biochemical
Method in brief: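 MAGL preincubated with compound 15 min at RT in 50 mM Tris, 1 mM EDTA, 0.01% Tween-20, 2.5% DMSO; reaction started with 8 μM 2-AG (final), […], 30 min at RT. Quenched with acetonitrile containing d8-arachidonic acid; arachidonic acid quantified by RapidFire SPE-triple quad MS as arachidonic acid/d8 ratio.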

| IC50 [µM] | Structure (SMILES) |
| --- | --- |
| 0.00042 | O=C(N1CC2(CC(Cn3cnc(C4(C(F)(F)F)CC4)n3)C2)C1)N1CC2(CC(c3cc(C4CC4)n[nH]3)C2)C1 [Example 74, [6-(3-cyclopropyl-1H-pyrazol-5-yl)-2-azaspiro[3.3]heptan-2-yl]-[6-[[3-[1-(trifluoromethyl)cyclopropyl]-1,2,4-triazol-1-yl]methyl]-2-azaspiro[3.3]heptan-2-yl]methanone] |
| 0.11 | Cn1ccnc1CN1CC2(C1)CN(C(=O)N1CC3(CC(n4cnc(C5CC5)n4)C3)C1)C2 [Example 308, [6-(3-cyclopropyl-1,2,4-triazol-1-yl)-2-azaspiro[3.3]heptan-2-yl]-[6-[(1-methylimidazol-2-yl)methyl]-2,6-diazaspiro[3.3]heptan-2-yl]methanone] |
| 0.0125 | O=C(N1CC2(CC(Cc3cnn(CC(F)(F)F)n3)C2)C1)N1CC2(CC(n3cnc(C4(O)CC4)n3)C2)C1 [Example 202, [6-[3-(1-hydroxycyclopropyl)-1,2,4-triazol-1-yl]-2-azaspiro[3.3]heptan-2-yl]-[6-[[2-(2,2,2-trifluoroethyl)triazol-4-yl]methyl]-2-azaspiro[3.3]heptan-2-yl]methanone] |
| 0.00454 | Cc1cc(C2CC2)n(CC2CC3(C2)CN(C(=O)N2CC4(CC(n5cnc(C6(O)CC6)n5)C4)C2)C3)n1 [Example 133, [6-[(5-cyclopropyl-3-methyl-pyrazol-1-yl)methyl]-2-azaspiro[3.3]heptan-2-yl]-[6-[3-(1-hydroxycyclopropyl)-1,2,4-triazol-1-yl]-2-azaspiro[3.3]heptan-2-yl]methanone] |
| 0.0175 | O=C(N1CC2(CC(Cc3nc(C(F)(F)F)ns3)C2)C1)N1CC2(CC(n3cnc(C4(O)CC4)n3)C2)C1 [Example 17, [6-[3-(1-hydroxycyclopropyl)-1,2,4-triazol-1-yl]-2-azaspiro[3.3]heptan-2-yl]-[6-[[3-(trifluoromethyl)-1,2,4-thiadiazol-5-yl]methyl]-2-azaspiro[3.3]heptan-2-yl]methanone] |
| 0.0007 | O=C(N1CC2(CC(Cc3nnc(C4(C(F)(F)F)CC4)o3)C2)C1)N1CC2(CC(n3cnc(C4CC4)n3)C2)C1 [Example 8] |
| 0.0382 | Cc1c(CN2CC3(C2)CN(C(=O)N2CC4(CC(n5cnc(C6CC6)n5)C4)C2)C3)cnn1CC(F)(F)F [Example 115, [6-(3-cyclopropyl-1,2,4-triazol-1-yl)-2-azaspiro[3.3]heptan-2-yl]-[6-[[5-methyl-1-(2,2,2-trifluoroethyl)pyrazol-4-yl]methyl]-2,6-diazaspiro[3.3]heptan-2-yl]methanone] |
| 0.00029 | Cc1cc(C2CC2)n(CC2CC3(C2)CN(C(=O)N2CC4(CC(n5cnc(C6CC6)n5)C4)C2)C3)n1 [Example 132, [6-[(5-cyclopropyl-3-methyl-pyrazol-1-yl)methyl]-2-azaspiro[3.3]heptan-2-yl]-[6-(3-cyclopropyl-1,2,4-triazol-1-yl)-2-azaspiro[3.3]heptan-2-yl]methanone] |
| 0.0108 | O=C(N1CC2(CC(Oc3cnn(CC(F)(F)F)c3)C2)C1)N1CC2(CC(n3cnc(C4CC4)n3)C2)C1 [Example 249, [6-(3-cyclopropyl-1,2,4-triazol-1-yl)-2-azaspiro[3.3]heptan-2-yl]-[6-[1-(2,2,2-trifluoroethyl)pyrazol-4-yl]oxy-2-azaspiro[3.3]heptan-2-yl]methanone] |
| 0.164 | Cn1cnc(C#N)c1CN1CC2(C1)CN(C(=O)N1CC3(CC(n4cnc(C5CC5)n4)C3)C1)C2 [Example 281, 5-[[2-[6-(3-cyclopropyl-1,2,4-triazol-1-yl)-2-azaspiro[3.3]heptane-2-carbonyl]-2,6-diazaspiro[3.3]heptan-6-yl]methyl]-1-methyl-imidazole-4-carbonitrile] |
| 0.0058 | Cc1cc(C(F)(F)F)nn1CC1CC2(C1)CN(C(=O)N1CC3(CC(n4cnc(C(F)(F)F)n4)C3)C1)C2 [Example 68, [6-[[5-methyl-3-(trifluoromethyl)pyrazol-1-yl]methyl]-2-azaspiro[3.3]heptan-2-yl]-[6-[3-(trifluoromethyl)-1,2,4-triazol-1-yl]-2-azaspiro[3.3]heptan-2-yl]methanone] |
| 0.00612 | O=C(N1CC2(CC(Cc3nc(C(F)(F)F)c[nH]3)C2)C1)N1CC2(CC(n3cnc(C4(O)CC4)n3)C2)C1 [Example 337, [6-[3-(1-hydroxycyclopropyl)-1,2,4-triazol-1-yl]-2-azaspiro[3.3]heptan-2-yl]-[6-[[4-(trifluoromethyl)-1H-imidazol-2-yl]methyl]-2-azaspiro [3.3]heptan-2-yl]methanone] |
| 0.154 | Cn1cc(CN2CC3(C2)CN(C(=O)N2CC4(CC(n5cnc(C(F)(F)F)n5)C4)C2)C3)c(C(F)(F)F)n1 [Example 191, [6-[[1-methyl-3-(trifluoromethyl)pyrazol-4-yl]methyl]-2,6-diazaspiro[3.3]heptan-2-yl]-[6-[3-(trifluoromethyl)-1,2,4-triazol-1-yl]-2-azaspiro[3.3]heptan-2-yl]methanone] |
| 0.73 | O=C(N1CC2(CC(n3cnc(C(F)(F)F)n3)C2)C1)N1CC2(CN(Cc3nnn(CC(F)(F)F)n3)C2)C1 [Example 193, [6-[[2-(2,2,2-trifluoroethyl)tetrazol-5-yl]methyl]-2,6-diazaspiro[3.3]heptan-2-yl]-[6-[3-(trifluoromethyl)-1,2,4-triazol-1-yl]-2-azaspiro[3.3]heptan-2-yl]methanone] |
| 0.019 | O=C(N1CC2(CC(Oc3cnn(CC(F)(F)F)c3)C2)C1)N1CC2(CC(c3cc(C4CC4)n[nH]3)C2)C1 [Example 248, [6-(3-cyclopropyl-1H-pyrazol-5-yl)-2-azaspiro[3.3]heptan-2-yl]-[6-[1-(2,2,2-trifluoroethyl)pyrazol-4-yl]oxy-2-azaspiro[3.3]heptan-2-yl]methanone] |
| 0.00212 | O=C(N1CC2(CC(c3cc(C4CC4)n[nH]3)C2)C1)N1CC2(CN(Cc3cc(C(F)(F)F)ns3)C2)C1 [Example 151, [6-(3-cyclopropyl-1H-pyrazol-5-yl)-2-azaspiro[3.3]heptan-2-yl]-[6-[[3-(trifluoromethyl)isothiazol-5-yl]methyl]-2,6-diazaspiro[3.3]heptan-2-yl]methanone] |
| 0.0153 | O=C(N1CC2(CC(n3cnc(C(F)(F)F)n3)C2)C1)N1CC2(CN(Cc3cc(C(F)(F)F)ns3)C2)C1 [Example 153, [6-[[3-(trifluoromethyl)isothiazol-5-yl]methyl]-2,6-diazaspiro[3.3]heptan-2-yl]-[6-[3-(trifluoromethyl)-1,2,4-triazol-1-yl]-2-azaspiro[3.3]heptan-2-yl]methanone] |
| 0.145 | O=C(N1CC2(CC(n3cnc(C(F)(F)F)n3)C2)C1)N1CC2(CN(Cc3nnc(C(F)(F)F)s3)C2)C1 [Example 82, [6-[[5-(trifluoromethyl)-1,3,4-thiadiazol-2-yl]methyl]-2,6-diazaspiro[3.3]heptan-2-yl]-[6-[3-(trifluoromethyl)-1,2,4-triazol-1-yl]-2-azaspiro[3.3]heptan-2-yl]methanone] |
| 0.0149 | O=C(N1CC2(CC(Oc3nc(C(F)(F)F)cs3)C2)C1)N1CC2(CC(n3cnc(C4(O)CC4)n3)C2)C1 [Example 13, [6-[3-(1-hydroxycyclopropyl)-1,2,4-triazol-1-yl]-2-azaspiro[3.3]heptan-2-yl]-[6-[4-(trifluoromethyl)thiazol-2-yl]oxy-2-azaspiro[3.3]heptan-2-yl]methanone] |
